This is an account of results in patent publication US20140094462A1, “SONIC HEDGEHOG MODULATORS” (priority 2009, published 2014).

The conditions of series [1]: rcm bond, 12-membered ring.
For series [2] the following is noted: rcm bond, toluene.
Series [3] relates to C3H10T1/2. The series can be described thus: Induction of osteogenic differentiation (modulation of osteoblast differentiation). As to conditions: Mus musculus, C3H 10T1/2, read-out: IC50 (nM) C3H10T1/2.
Excerpt: Using assays previously described in Dwyer et al., J. Biol. Chem. 282, (2007), 8959-68 and Nakamura et al., Biochm. […] Res. Comm., 237 (1997) 465-9, select compounds of the invention were screened for their ability to modulate osteoblast differentiation.
Series [4] concerns Gli1. Kind of series: Primary keratinocyte cell culture, reduction in Gli mRNA. Type of series: cell-based. As to conditions: primary human keratinocytes. As for the experimental part: To study the potency of the compounds of the invention in cells, select compounds of the invention were conducted with keratinocytes and the reduction in Gli mRNA was measured. Culturing of primary human keratinocytes was previously described (Nguyen, B. C., et al., Genes & Dev. 20:1028-1042 (2006)). The full thickness skin model, EpiDermFT System (MatTek, Ashland), consisted of normal, human-derived epidermal keratinocytes and normal, human-derived dermal fibroblasts which have been cultured to form a multilayered, highly differentiated model of the human dermis and epidermis. […] Gene expression is compared by quantifying mRNA levels by real time RT-PCR. For this, total RNA preparations […] are used in a reverse transcriptase reaction with a mix of oligonucleotide dT and random hexamer primers, followed by real time PCR with gene-specific primers (Gli1: Qiagen Quantitect PrimerAssay QT00060501; Gli2: Qiagen Quantitect PrimerAssay QT00018648), using an […] real time detection system (Bio-Rad) according to the manufacturer's recommendation, with SYBR Green (Bio-Rad) for detection.

Series [5] addresses T1, ShhN protein (Homo sapiens, UniProt Q15465).
T1 construct: auto-cleavage of full length Shh into an active 20 kD N-terminal fragment (ShhN); purchased R&D Systems
Kind of series: Surface Plasmon Resonance (SPR) protein binding assay on immobilized ShhN. The following applies: SPR, Biacore T100, ShhN immobilized on CM4 chip, 25° C., compound 0.78 μM-25 μM; read-out: KD. The essentials:
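Binding to immobilized ShhN measured on a Biacore T100 at 25°C. Signals referenced against underivatized control surfaces, with zero-concentration blank cycles included. Solvent correction applied.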
In general terms: SPR reads the build-up and loss of mass on a sensor chip optically.

Where two headings read alike, the source gives them in different places. Some results are limits rather than exact numbers.

T1 sequence (Q15465 24-197 limits assumed, species assumed): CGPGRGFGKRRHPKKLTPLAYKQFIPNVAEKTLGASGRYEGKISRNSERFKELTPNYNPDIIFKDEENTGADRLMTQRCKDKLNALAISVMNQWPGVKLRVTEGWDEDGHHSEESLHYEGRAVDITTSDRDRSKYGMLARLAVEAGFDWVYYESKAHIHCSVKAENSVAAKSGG

Take `C[C@@H]1C/C=C/CCNC(=O)[C@H](c2ccccc2)COC1=O`: in series [1] (from C=CCCNC(=O)[C@@H](COC(=O)[C@H](C)CC=C)c1ccccc1, Grubbs II (10 mol%), toluene, 10.0 mM, 2 steps), the ring closure, isolated yield was determined as 63%.
For the molecule `C[C@H]1C/C=C/CCCN[C@H](c2ccccc2)COC1=O`, the ring closure, isolated yield in series [1] (from C=CCCCN[C@@H](COC(=O)C(C)CC=C)c1ccccc1, general RCM procedure (catalyst not printed here), toluene, 3 steps) worked out at 41%. For the same molecule, in series [2] (from C=CCCCN[C@@H](COC(=O)[C@@H](C)CC=C)c1ccccc1, 3 steps), the ring closure, yield of all isomers turned out to be 41%.
`C[C@@H]1C/C=C/CCC(=O)N[C@H](c2ccccc2)CC(=O)O1` registered a ring closure, isolated yield in series [1] (from C=CCCC(=O)N[C@H](CC(=O)O[C@@H](C)CC=C)c1ccccc1, Grubbs II (10 mol%), toluene, 10.0 mM) of 79%.
The molecule `CCO[Si](OCC)(OCC)C1=CCC(C)(C)C(=O)OC[C@@H](c2ccccc2)NC(=O)CC1` registered a ring closure, isolated yield in series [1] (from C=CCC(C)(C)C(=O)OC[C@H](NC(=O)CCC(=C)[Si](OCC)(OCC)OCC)c1ccccc1, general RCM procedure (catalyst not printed here), toluene) of 6%. In series [2] (from C=CCC(C)(C)C(=O)OC[C@H](NC(=O)CCC(=C)[Si](OCC)(OCC)OCC)c1ccccc1), the ring closure, yield of all isomers worked out at 6%.
Molecule `CC(C)(C)OC(=O)C[C@@H]1C/C=C/CCC(=O)O[C@H](c2ccccc2)CNC1=O` displayed a ring closure, isolated yield in series [1] (from C=CCCC(=O)O[C@@H](CNC(=O)[C@@H](CC=C)CC(=O)OC(C)(C)C)c1ccccc1, Grubbs II (10 mol%), toluene, 10.0 mM, 65.0 °C, 7.0 h) of 73%. In series [2] (from C=CCCC(=O)O[C@@H](CNC(=O)[C@@H](CC=C)CC(=O)OC(C)(C)C)c1ccccc1, Grubbs 2nd Generation catalyst, 10.0 mM, 65.0 °C, 7.0 h), the ring closure, yield of all isomers came to 73%.
Usually Kd stands for the constant that tells how readily two partners part at equilibrium. For `C[C@H]1[C@@H](c2ccccc2)OC(=O)CC/C=C/C[C@@H](CC(=O)NCc2ccc(Cl)cc2)C(=O)N1C` [Example CZ, N-(4-chlorobenzyl)-2-((2R,3S,6S,E)-3,4-dimethyl-5,12-dioxo-2-phenyl-1-oxa-4-azacyclododec-8-en-6-yl)acetamide], the IC50 in series [3] and in series [4] was 100 to 1000 nM in each case. For the same molecule, the Kd in series [5] is < 100 nM.
For `O=C(C[C@@H]1C[C@H](O)[C@@H](O)CCC(=O)N[C@H](c2ccccc2)COC1=O)NCc1ccc(Cl)cc1` [Example E, N-(4-chlorobenzyl)-2-((3R,8S,9S,11S)-8,9-dihydroxy-5,12-dioxo-3-phenyl-1-oxa-4-azacyclododecan-11-yl)acetamide], the IC50 in series [3] is 1000 to 100000 nM; in series [4], < 100 nM. Further, the Kd in series [5] is < 100 nM.
Turning to `CN1CCC(CNC(=O)C[C@@H]2C/C=C/CCC(=O)O[C@H](c3ccccc3)CNC2=O)CC1` [Example DN, 2-((2R,6S,E)-5,12-dioxo-2-phenyl-1-oxa-4-azacyclododec-8-en-6-yl)-N-((1-methylpiperidin-4-yl)methyl)acetamide], the results for the IC50 in series [3] and in series [4] were 1000 to 100000 nM and 100 to 1000 nM, respectively. For the same molecule, the Kd in series [5] was < 100 nM.
For the molecule `O=C(C[C@@H]1C/C=C/CCC(=O)N[C@@H](c2ccccc2)COC1=O)NCc1ccc(Cl)cc1` [Example DA, N-(4-chlorobenzyl)-2-((3S,11S,E)-5,12-dioxo-3-phenyl-1-oxa-4-azacyclododec-8-en-11-yl)acetamide], the results for the IC50 in series [3] and in series [4] were 100 to 1000 nM and < 100 nM, respectively. The Kd in series [5] is < 100 nM.
For `CC1(C)O[C@H]2CCC(=O)O[C@H](c3ccccc3)CNC(=O)[C@H](CC(=O)NCc3ccc(Cl)cc3)C[C@@H]2O1` [Example I, N-(4-chlorobenzyl)-2-((3aS,8R,12S,13aS)-2,2-dimethyl-6,11-dioxo-8-phenyldecahydro-3aH-[1,3]dioxolo[4,5-h][1,4]oxaazacyclododecin-12-yl)acetamide], the IC50 is 1000 to 100000 nM in series [3] and < 100 nM in series [4]. Also, the Kd in series [5] is < 100 nM.
As for `O=C(C[C@@H]1C/C=C/CCC(=O)O[C@H](c2ccccc2)CNC1=O)NCCCC(F)(F)F` [Example CT, 2-((2R,6S,E)-5,12-dioxo-2-phenyl-1-oxa-4-azacyclododec-8-en-6-yl)-N-(4,4,4-trifluorobutyl)acetamide], the IC50 in series [3] and in series [4] was < 100 nM each time. Besides, the Kd in series [5] was < 100 nM.
Consider `CC(C)(C)OC(=O)N[C@@H]1C/C=C/CCC(=O)N[C@H](c2ccc(F)cc2)COC1=O`, for which the ring closure, isolated yield in series [1] (from C=CCCC(=O)N[C@@H](COC(=O)[C@@H](CC=C)NC(=O)OC(C)(C)C)c1ccc(F)cc1, Grubbs II (10 mol%), DCM, 9.9 mM) is 85%.
In the case of `C[C@@H]1C/C=C/CCC(=O)N[C@H](c2ccccc2)COC1=O` [Example C, (3R,11R,E)-11-methyl-3-phenyl-1-oxa-4-azacyclododec-8-ene-5,12-dione], the IC50 in series [3] was 100 to 1000 nM; in series [4], < 100 nM. In series [2] (from C=CCCC(=O)N[C@@H](COC(=O)[C@H](C)CC=C)c1ccccc1, Grubbs II, 20.0 mM, 25.0 °C, 12.0 h), this molecule showed a ring closure, yield of all isomers of 37%. In series [5], the Kd is < 100 nM.
Regarding `CC(=O)N[C@H]1C/C=C/C[C@@H](CC(=O)NCc2ccc(Cl)cc2)C(=O)NC[C@@H](c2ccccc2)OC1=O` [Example DJ, 2-((2R,6S,11S,E)-11-acetamido-5,12-dioxo-2-phenyl-1-oxa-4-azacyclododec-8-en-6-yl)-N-(4-chlorobenzyl)acetamide], the IC50 was 100 to 1000 nM in series [3] and > 100000 nM in series [4]. Further, in series [5], the Kd was < 100 nM.
